This is an account of results in US12018059B2, “Human amylin analog polypeptides and methods of use” (Intarcia Therapeutics, Inc., priority 2018, dated 2024).

Data set [1] can be described thus: 13-day dose-response body weight loss, continuous SC infusion by osmotic mini-pump. Conditions: 13 days, LE DIO rats; for DIO Dose Response 13 d weight loss, ΔΔ % weight loss: from baseline and vehicle control.
Data set [2] in a line: 27-day weight loss in combination with exenatide. Conditions: LE DIO rats.
Data set [3] in a line: Solubility of amylin analog polypeptides (visual inspection, room temperature). The class given is physicochemical. Conditions: Solubility. As for the experimental part: The analog polypeptides described herein were tested for solubility in saline 20% DMSO in water (i.e., bioassay buffer) or in aqueous (DI water) at room temperature. Samples were visually inspected for clarity of the sample, any appearance of turbidity or haziness.

Data set [4] in a line: 27-day HbA1c change in combination with exenatide. Conditions: dose 30 mcg/kg + Exenatide 10 mcg/kg, ZDF rats.
A short description of data set [5]: Acute food intake inhibition after SC bolus injection (BioDAQ). Conditions: Long Evans rats on 45% high fat diet.
The nature of another data set: in vivo. Also on record: species or system Sprague-Dawley rats. Conditions: male, Sprague-Dawley, rat, iv, 0.033 mg/kg. In short, it runs like this:
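Peptide plasma levels measured by UPLC-MS/MS (C18, product-ion monitoring) after protein precipitation or WCX SPE, calibrated in K2EDTA/protease-inhibitor rat plasma. Dosing in non-fasted male Sprague-Dawley rats (n=3): 0.033 mg/kg over 1 h by IV or SC infusion, or 0.3 mg/kg SC bolus; sampling up to 48 h.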

For data set [6] the following is noted: in vivo; cited from earlier work.
The conditions of data set [7]: in serum; cited from earlier work.
The mark [8] stands for this setting: dose 3 mcg/kg + Exenatide 10 mcg/kg.
Where [9] appears, read: dose 10 mcg/kg + Exenatide 10 mcg/kg.
Where [10] appears, read: dose 30 mcg/kg + Exenatide 10 mcg/kg.

≈ marks a conversion by molar mass, not a printed value. Like-named read-outs stand apart in the source and are kept apart here. Starred links: 1 amine or outer side, 2 acyl side, 3 side chain; linkers in the order of their positions; H or OH if unused. Positions of bridges follow the written chain, without caps; N, C: chain ends. Non-standard residues stand in square brackets, D forms with d. Residues, ends and D or L forms follow the SMILES beside them. Groups on a side chain read outwards from the residue. *: point of attachment. γGlu = O=C(O)[C@H](CCC(=O)[*:2])N[*:1]; Stearoyl = CCCCCCCCCCCCCCCCCC(=O)*; Palmitoyl = CCCCCCCCCCCCCCCC(=O)*

The solubility is the dissolved amount per volume that the medium holds. A low value points to little dissolved substance. A word on the Vd: it is a proportionality between amount in the body and measured concentration, not a real space. Read a low Vd as confinement near the circulation. The clearance is the rate of elimination divided by the concentration. High values mean efficient removal, low ones inefficient removal. A word on the half-life: it is the time needed for the level to fall by half in the phase considered. `CCCCCCCCCCCCCCCC(=O)N[C@@H](CCC(=O)N[C@@H](CCC(=O)NCCCC[C@@H](NC(=O)[C@H](CCC(=O)O)NC(=O)[C@H](CC(N)=O)NC(=O)[C@H](C)NC(=O)[C@H](CC(C)C)NC(=O)[C@H](CCCNC(=N)N)NC(=O)[C@H](CCC(N)=O)NC(=O)[C@@H](NC(=O)[C@H](C)NC(=O)[C@@H]1CSSC[C@H](NC(=O)[C@@H](N)CO)C(=O)N[C@@H](CC(N)=O)C(=O)N[C@@H]([C@@H](C)O)C(=O)N[C@@H](CO)C(=O)N[C@@H]([C@@H](C)O)C(=O)N1)[C@@H](C)O)C(=O)N[C@@H](Cc1c[nH]cn1)C(=O)N[C@@H](CCCCN)C(=O)N[C@@H](CO)C(=O)N[C@@H](CO)C(=O)N[C@@H](CC(N)=O)C(=O)N[C@@H](CC(N)=O)C(=O)N[C@@H](Cc1ccccc1)C(=O)NCC(=O)N1CCC[C@H]1C(=O)N[C@H](C(=O)N[C@@H](CC(C)C)C(=O)N1CCC[C@H]1C(=O)N1CCC[C@H]1C(=O)N[C@H](C(=O)N[C@@H](CCCCN)C(=O)N[C@H](C(=O)NCC(=O)N[C@@H](CO)C(=O)N[C@@H](CCC(=O)O)C(=O)N[C@H](C(=O)N[C@@H](Cc1ccc(O)cc1)C(N)=O)[C@@H](C)O)C(C)C)[C@@H](C)O)[C@@H](C)CC)C(=O)O)C(=O)O` [Compound A27] (H-SCNTSTCATQRLANE[dK]([γGlu-γGlu-Palmitoyl])HKSSNNFGPILPPTKVGSETY-NH2; disulfide 2-7; N-terminus assumed): the “DIO Dose Response 13 d weight loss, ED50” value in data set [1] turned out to be 0.036 mg/kg. Moreover, in data set [1], the “DIO Dose Response 13 d weight loss, ΔΔ % weight loss” value is 5%. Moreover, the “DIO Combination + Exenatide 27 d weight loss, ΔΔ % weight loss” value amounted to 9% in data set [2] (setting [8]), 12% in data set [2] (setting [9]) and 17% in data set [2] (setting [10]). In addition, the concentration in solution in data set [3] (solubility) came to 80.6 mg/mL (≈ 18 mM). Further, in data set [4], the “ZDF Combination + Exenatide 27 d HbA1c (%), ΔΔ % HbA1c” value was 3.3%. The “Acute Food Intake % Inhibition vs vehicle” value came out at 86% in data set [5] (0-24 hr after acute SC dosing), 57% in data set [5] (25-48 hr after acute SC dosing) and 13% in data set [5] (49-72 hr after acute SC dosing). The Vd in the data set “in vivo” turned out to be 0.174 L/kg. In addition, the clearance in “in vivo” was 0.478 mL/min/kg. The molecule further gave a half-life in the data set “in vivo” of 5.16 h.
For the molecule davalintide, the half-life entry in data set [6] is reported as “about 26 minutes”.
With “human amylin (KCNTATCATQRLANFLVHSSNNFGAILSSTNVGSNTY) [37-residue polypeptide hormone co-secreted with insulin from pancreatic β-cells]”, the half-life result in data set [7] is reported as “about 13 minutes”.
Regarding `CCCCCCCCCCCCCCCCCC(=O)N[C@@H](CCC(=O)N[C@@H](CCC(=O)N[C@@H](CCC(=O)NCCCC[C@@H](NC(=O)[C@H](CCC(=O)O)NC(=O)[C@H](CC(N)=O)NC(=O)[C@H](C)NC(=O)[C@H](CC(C)C)NC(=O)[C@H](CCCNC(=N)N)NC(=O)[C@H](CCC(N)=O)NC(=O)[C@@H](NC(=O)[C@H](C)NC(=O)[C@@H]1CSSC[C@H](NC(=O)[C@@H](N)CO)C(=O)N[C@@H](CC(N)=O)C(=O)N[C@@H]([C@@H](C)O)C(=O)N[C@@H](CO)C(=O)N[C@@H]([C@@H](C)O)C(=O)N1)[C@@H](C)O)C(=O)N[C@@H](Cc1c[nH]cn1)C(=O)N[C@@H](CCCCN)C(=O)N[C@@H](CO)C(=O)N[C@@H](CO)C(=O)N[C@@H](CC(N)=O)C(=O)N[C@@H](CC(N)=O)C(=O)N[C@@H](Cc1ccccc1)C(=O)NCC(=O)N1CCC[C@H]1C(=O)N[C@H](C(=O)N[C@@H](CC(C)C)C(=O)N1CCC[C@H]1C(=O)N1CCC[C@H]1C(=O)N[C@H](C(=O)N[C@@H](CCCCN)C(=O)N[C@H](C(=O)NCC(=O)N[C@@H](CO)C(=O)N[C@@H](CCC(=O)O)C(=O)N[C@H](C(=O)N[C@@H](Cc1ccc(O)cc1)C(N)=O)[C@@H](C)O)C(C)C)[C@@H](C)O)[C@@H](C)CC)C(=O)O)C(=O)O)C(=O)O` [Compound A13] (H-SCNTSTCATQRLANE[dK]([γGlu-γGlu-γGlu-Stearoyl])HKSSNNFGPILPPTKVGSETY-NH2; disulfide 2-7; N-terminus assumed), the “DIO Dose Response 13 d weight loss, ED50” value in data set [1] was 0.055 mg/kg. In addition, the “DIO Dose Response 13 d weight loss, ΔΔ % weight loss” value in data set [1] is 5%. Moreover, the “DIO Combination + Exenatide 27 d weight loss, ΔΔ % weight loss” value in data set [2] (setting [8]) was 9%; in data set [2] (setting [9]), 12%; in data set [2] (setting [10]) it was 12%. In data set [3], the solubility amounted to 63 mg/mL (≈ 13.6 mM). Further, the entries for the “Acute Food Intake % Inhibition vs vehicle” value in data set [5] (0-24 hr after acute SC dosing), in data set [5] (25-48 hr after acute SC dosing) and in data set [5] (49-72 hr after acute SC dosing) were 67%, 37% and 6%, respectively. This molecule had a Vd in the data set “in vivo” of 0.398 L/kg. Further, the clearance in “in vivo” is 0.705 mL/min/kg. The same molecule had a half-life in the data set “in vivo” of 7.53 h.
